Measured values as given in publication PMC5923123, “In Vitro and In Vivo Efficacy of a Novel and Long-Acting Fungicidal Azole, PC1244, on Aspergillus fumigatus Infection” (Antimicrobial Agents and Chemotherapy, 2018).
≈ marks a conversion by molar mass, not a printed value. Like-named read-outs stand apart in the source and are kept apart here.

Legend:
[1] = tested on: Candida krusei (ATCC 6258); assay: CLSI MIC; format: cell-based; details: Pichia kudriavzevii, ATCC6258
[2] = tested on: 23 pathogenic fungi; format: cell-based; details: broad spectrum of pathogenic fungi
[3] = tested on: A. fumigatus (NCPF2010); assay: Fungicidal activity by XTT colorimetric method (XTT-MFC); details: for MFC: NCPF2010, read-out: XTT-MFC; for XTT-MFC/MIC ratio / XTT-MFC: NCPF2010; for XTT-MFC: cutoff 99% inhibition
Protocol: In addition, the fungicidal effect of each compound was determined using 2,3-bis-(2-methoxy-4-nitro-5-sulfophenyl)-2H-tetrazolium-5-carboxanilide salt (XTT)-based quantitative colorimetric analysis (XTT-MFC).
After the removal of medium for culture-based testing of the number of CFU, the contents of all wells were carefully aspirated and warm PBS (200 μl/well) was added. After gentle agitation, the contents of all wells were aspirated and fresh medium was added (200 μl/well). The plates were incubated (35°C with ambient air) for 24 h. […] The plates were incubated (35°C with ambient air) for 2 h, after which the plates were agitated gently for 2 min. The optical density (OD) of each well at 450 nm and 620 nm was measured using a multiscanner (Clariostar; BMG, Buckinghamshire, UK).

[4] = target: A. fumigatus CYP51B (Aspergillus fumigatus, UniProt E9QY26); assay: CYP51 reconstitution assay (sterol 14α-demethylase inhibition)
Protocol: (§1) The test agent was added to a mixture of 0.5 μM CYP51, 1 μM A. fumigatus cytochrome P450 reductase isoenzyme 1 (AfCPR1), 50 μM eburicol, 4% (wt/vol) 2-hydroxypropyl-β-cyclodextrin, 0.4 mg/ml isocitrate dehydrogenase, 25 mM trisodium isocitrate, 50 mM NaCl, 5 mM MgCl2, and 40 mM 3-(N-morpholino) propanesulfonic acid (MOPS; pH of ∼7.2). The mixtures were then incubated at 37°C for 10 min prior to initiation with 4 mM β-NADPHNa4, followed by shaking for 20 min at 37°C. Sterol metabolites were recovered by extraction with ethyl acetate followed by derivatization with 0.1 ml N,O-bis(trimethylsilyl)trifluoroacetamide: trimethylchlorosilane (99:1) and 0.3 ml anhydrous pyridine prior to analysis by gas chromatography-mass spectrometry.

[5] = tested on: Lichtheimia corymbifera (ATCC 7909); assay: CLSI MIC; format: cell-based; details: ATCC7909, 1 strain
[6] = tested on: Penicillium citrinum (ATCC 9849); assay: CLSI MIC; format: cell-based; details: ATCC9849, 1 strain
[7] = tested on: Chaetomium globosum (ATCC 44699); assay: CLSI MIC; format: cell-based; details: ATCC44699, 1 strain
[8] = tested on: A. fumigatus (ATCC 13073 [strain NIH 5233]); assay: In vivo antifungal activity, late intervention (intranasal, days 1-3 postinfection), temporarily neutropenic mice; details: for inhibition of GM in serum: 0.08 mg/ml (2.8 μg/mouse) intranasal once daily days 1-3; for inhibition of fungal load (CFU) in the lung vs vehicle: 0.08 mg/ml, 35 μl intranasal once daily days 1-3 postinfection
[9] = tested on: A. fumigatus (ATCC 13073 [strain NIH 5233]); assay: In vivo extended prophylaxis (intranasal, days -7 to 0) in infected immunocompromised mice; details: 0.0032 mg/ml (0.11 μg/mouse), compared to late intervention at the same dose
Protocol: The test agents, suspended in physiological saline, were administered intranasally (35 μl, approximately 17.5 μl each in each nostril) once daily on days 1, 2, and 3 postinfection. […] As the injection volume was fixed and the body weight changed every day, especially after infection, the accurate dose unit was the number of micrograms per mouse. However, as the average body weight after immunosuppression and just before infection was 20 g, we also calculated the estimated dose in milligrams per kilogram.

[10] = tested on: Aspergillus flavus (ATCC 204304); assay: CLSI MIC; format: cell-based
[11] = tested on: A. fumigatus (ATCC 13073 [strain NIH 5233]); assay: MIC against the strain used in vivo; format: cell-based; details: Aspergillus fumigatus, ATCC13073
[12] = tested on: Rhizomucor pusillus (ATCC 16458); assay: CLSI MIC; format: cell-based; details: ATCC16458, 1 strain
[13] = in vivo
[14] = target: A. fumigatus CYP51A (Aspergillus fumigatus, UniProt Q4WNT5); assay: CYP51 reconstitution assay (sterol 14α-demethylase inhibition)
Protocol: as §1

[15] = tested on: Cryptococcus gattii (clinical isolate); assay: EUCAST MIC (EDef 7.2); format: cell-based; details: 1 strain
[16] = tested on: Cryptococcus neoformans (ATCC 24067); assay: CLSI MIC; format: cell-based
[17] = in vivo; details: mouse
[18] = tested on: Candida parapsilosis (ATCC 22019); assay: CLSI MIC; format: cell-based; details: ATCC22019, 1 strain, MIC = 50% inhibition of fungal growth
[19] = tested on: A. fumigatus (ATCC 13073); assay: In vivo persistence of action: single intranasal prophylactic dose 16 h before inoculation; details: PC1244 0.4 mg/ml, POS 0.8 mg/ml intranasal 16 h before inoculation; lungs 8 h after
[20] = tested on: sterol composition of A. fumigatus (NCPF2010); assay: A. fumigatus sterol analysis (GC-MS); format: cell-based, Aspergillus fumigatus; details: 2 h
[21] = tested on: Mucor circinelloides (ATCC 8542); assay: CLSI MIC; format: cell-based; details: ATCC8542, 1 strain
[22] = tested on: A. fumigatus ATCC 204305; assay: EUCAST MIC, quality control strain; format: cell-based; details: Aspergillus fumigatus, ATCC204305; quality control strain ATCC 204305
Excerpt: The antifungal activity of PC1244 was further evaluated against 96 clinical isolates (obtained from Saint Louis Hospital, Paris, France [50 isolates], and the North West England Mycology Reference Centre, Manchester, UK [46 isolates]). […] .

[23] = tested on: Candida glabrata (ATCC 36583, R363); assay: CLSI MIC; format: cell-based; details: Nakaseomyces glabratus
[24] = tested on: Candida albicans AR (20183.073, 20186.025); assay: CLSI MIC; format: cell-based
[25] = tested on: A. fumigatus isolates; design: method as in PMID 12202554; details: MFC = lowest dilution yielding less than 3 colonies; cited from earlier work
[26] = Aspergillus fumigatus, NCPF2010, read-out: maximum inhibition of fungicidal activity
[27] = ATCC204304, CLSI, 1 strain, read-out: MIC
[28] = ATCC24067, CLSI, 1 strain, read-out: MIC

Sequence of A. fumigatus CYP51B (E9QY26 whole entry): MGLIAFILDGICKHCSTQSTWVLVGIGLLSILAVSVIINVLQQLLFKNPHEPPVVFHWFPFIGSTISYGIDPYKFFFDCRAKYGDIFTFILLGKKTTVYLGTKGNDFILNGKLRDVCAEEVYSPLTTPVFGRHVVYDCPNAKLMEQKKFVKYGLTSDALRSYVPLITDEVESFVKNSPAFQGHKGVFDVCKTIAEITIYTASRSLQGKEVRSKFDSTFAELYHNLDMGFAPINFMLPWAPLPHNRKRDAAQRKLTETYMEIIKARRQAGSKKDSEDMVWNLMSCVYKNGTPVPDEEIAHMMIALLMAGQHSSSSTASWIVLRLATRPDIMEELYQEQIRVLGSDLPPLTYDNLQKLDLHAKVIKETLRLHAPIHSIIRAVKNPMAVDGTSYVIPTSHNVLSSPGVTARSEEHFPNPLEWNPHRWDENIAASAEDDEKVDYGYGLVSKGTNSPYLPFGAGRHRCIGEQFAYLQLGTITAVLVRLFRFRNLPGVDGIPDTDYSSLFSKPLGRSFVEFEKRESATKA
Sequence of A. fumigatus CYP51A (Q4WNT5 whole entry): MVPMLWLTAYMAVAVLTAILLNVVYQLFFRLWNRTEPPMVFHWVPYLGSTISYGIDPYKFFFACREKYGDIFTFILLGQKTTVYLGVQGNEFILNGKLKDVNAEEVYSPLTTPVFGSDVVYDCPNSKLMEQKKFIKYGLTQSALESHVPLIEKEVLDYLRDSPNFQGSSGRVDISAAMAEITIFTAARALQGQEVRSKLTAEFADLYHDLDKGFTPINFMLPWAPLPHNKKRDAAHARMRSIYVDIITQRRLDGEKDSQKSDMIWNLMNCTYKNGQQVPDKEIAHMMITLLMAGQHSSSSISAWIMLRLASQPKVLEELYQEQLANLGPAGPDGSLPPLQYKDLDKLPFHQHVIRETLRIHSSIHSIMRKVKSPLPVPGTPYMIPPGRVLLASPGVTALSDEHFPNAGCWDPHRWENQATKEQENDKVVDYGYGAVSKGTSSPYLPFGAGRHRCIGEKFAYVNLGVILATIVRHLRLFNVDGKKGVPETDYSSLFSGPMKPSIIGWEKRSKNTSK

## Cc1cc(N2CCN(c3ccc(C(=O)N[C@H]4CCCC[C@@H]4O)cc3)CC2)ccc1OC[C@@H]1CO[C@@](Cn2cncn2)(c2ccc(F)cc2F)C1 [PC1244, 4-(4-(4-(((3R,5R)-5-((1H-1,2,4-triazol-1-yl)methyl)-5-(2,4-difluorophenyl)tetrahydrofuran-3-yl)methoxy)-3-methylphenyl)piperazin-1-yl)-N-((1S,2S)-2-hydroxycyclohexyl)benzamide]
[1]; CLSI, 1 strain, read-out: MIC
  MIC: 0.13 µg/mL (≈ 0.189 µM)
[2]
  MIC Range: <0.0078 to 2 µg/mL
[3]
  fold more potent than POS (XTT-MFC): 3 fold
  fold more potent than VRC (XTT-MFC): > 229 fold
  XTT-MFC/MIC ratio: 2.2
  XTT-MFC: 0.14 ± 0.0058 µg/mL
[3]; Aspergillus fumigatus
  MFC: 0.14 µg/mL (≈ 0.204 µM)
[3]; [26]
  inhibition at 1 µg/mL: 99.9%
[4]
  IC50: 230 nM
  Ki: < 1 nM
[5]
  MIC: 1 µg/mL (≈ 1.46 µM)
[6]
  MIC: 0.5 µg/mL (≈ 0.728 µM)
[7]
  MIC: 0.063 µg/mL (≈ 0.0917 µM)
[8]
  inhibition of GM in serum: 82%
  inhibition of fungal load (CFU) in the lung vs vehicle: 97%
[8]; infection-dependent increase
  CXCL1 level in BALF: reduced
  interleukin-6 (IL-6) level in serum: reduced
  tumor necrosis factor alpha (TNF-α) level in serum: reduced
[8]; mouse, in vivo
  ID50 (GM in BALF) fold lower than that of POS: 6.7 fold
[8]; pilot study
  A. fumigatus PCR products in lung tissue: inhibited the accumulation of PCR products
[9]
  effect on fungal load and biomarkers: high levels of inhibitory effects
[10]; [27]
  MIC: 0.25 µg/mL (≈ 0.364 µM)
[11]; strain ATCC 13073, read-out: MIC
  MIC: 0.063 µg/mL (≈ 0.0917 µM)
[12]
  MIC: 2 µg/mL (≈ 2.91 µM)
[13]
  oral availability: much less oral availability than posaconazole
[14]
  IC50: 270 nM
  Ki: < 1 nM
[15]
  MIC: 0.5 µg/mL (≈ 0.728 µM)
[16]; [28]
  MIC: 0.016 µg/mL (≈ 0.0233 µM)
[17]
  concentration at 2 h: 111 to 303 ng/mL
  concentration at 8 h: 249 to 339 ng/mL
  concentration at 24 h: 41.5 to 50.7 ng/mL
[18]
  MIC: 0.25 µg/mL (≈ 0.364 µM)
[19]
  GM levels in the lung: significant inhibition
  number of CFU in the lung: significant inhibition
[20]; compound at 0.0001 μg/ml
  Sterol composition: Eburicol: 2.5 ± 1.1%
  Sterol composition: Ergost-5,7-dienol: 4.6 ± 1.8%
  Sterol composition: Ergosterol: 91.3 ± 0.1%
  Sterol composition: Lanosterol: 1.7 ± 0.7%
[20]; compound at 0.001 μg/ml
  Sterol composition: Eburicol: 3.4 ± 1.2%
  Sterol composition: Ergost-5,7-dienol: 4.6 ± 0.8%
  Sterol composition: Ergosterol: 89.2 ± 0.2%
  Sterol composition: Lanosterol: 2.8 ± 0.6%
[20]; compound at 0.01 μg/ml
  Sterol composition: Eburicol: 14.7 ± 1.5%
  Sterol composition: Ergost-5,7-dienol: 0%
  Sterol composition: Ergosterol: 76.8 ± 2.6%
  Sterol composition: Lanosterol: 8.5 ± 1.1%
[20]; compound at 0.1 μg/ml
  Sterol composition: Eburicol: 26.7 ± 0.8%
  Sterol composition: Ergost-5,7-dienol: 0%
  Sterol composition: Ergosterol: 61.0 ± 1.6%
  Sterol composition: Lanosterol: 12.3 ± 0.8%
[20]; compound at 1 μg/ml
  Sterol composition: Eburicol: 28.2 ± 1.3%
  Sterol composition: Ergost-5,7-dienol: 0%
  Sterol composition: Ergosterol: 58.7 ± 2.2%
  Sterol composition: Lanosterol: 13.1 ± 0.9%
[21]
  MIC: 2 µg/mL (≈ 2.91 µM)

## CC[C@@H]([C@H](C)O)n1ncn(-c2ccc(N3CCN(c4ccc(OC[C@@H]5CO[C@@](Cn6cncn6)(c6ccc(F)cc6F)C5)cc4)CC3)cc2)c1=O [Posaconazole, posaconazole]
[3]; Aspergillus fumigatus
  MFC: 0.42 µg/mL (≈ 0.599 µM)
[3]; [26]
  inhibition at 2 µg/mL: 100%
[3]
  XTT-MFC/MIC ratio: 3.4
  XTT-MFC: 0.42 ± 0.020 µg/mL
[4]
  Ki: < 1 nM
[5]
  MIC: > 8 µg/mL
[6]
  MIC: 0.5 µg/mL (≈ 0.713 µM)
[7]
  MIC: 0.25 µg/mL (≈ 0.357 µM)
[22]
  MIC: 0.25 µg/mL (≈ 0.357 µM)
[8]
  inhibition of GM in serum: −11%
  inhibition of fungal load (CFU) in the lung vs vehicle: 39%
[8]; mouse, in vivo
  log10 ID fold higher than that of PC1244: 143 fold
[23]; ATCC36583, CLSI, 2 strains, MIC = 50% inhibition, two individual values for PC1244, read-out: MIC
  MIC: 0.5 µg/mL (≈ 0.713 µM)
[10]; [27]
  MIC: 0.13 µg/mL (≈ 0.186 µM)
[24]; CLSI, 2 azole (fluconazole and voriconazole) resistant strains, MIC = 50% inhibition, two individual values for PC1244, read-out: MIC
  MIC: 8.13 µg/mL (≈ 11.6 µM)
[12]
  MIC: > 8 µg/mL
[14]
  Ki: < 1 nM
[15]
  MIC: 0.5 µg/mL (≈ 0.713 µM)
[25]
  range of MFCs for inhibition of 90% of isolates tested (MFC90): 0.06 to 2 µg/mL
[16]; [28]
  MIC: 0.016 µg/mL (≈ 0.0228 µM)
[17]
  concentration at 24 h: 15.6 to 125 ng/mL
[18]
  MIC: 0.25 µg/mL (≈ 0.357 µM)
[19]
  number of CFU in the lung: did not
[20]; compound at 0.0001 μg/ml
  Sterol composition: Eburicol: 2.2 ± 1.2%
  Sterol composition: Ergost-5,7-dienol: 3.3 ± 1.9%
  Sterol composition: Ergosterol: 94.5 ± 0.1%
  Sterol composition: Lanosterol: 0%
[20]; compound at 0.001 μg/ml
  Sterol composition: Eburicol: 5.9 ± 0.5%
  Sterol composition: Ergost-5,7-dienol: 3.9 ± 0.6%
  Sterol composition: Ergosterol: 87.2 ± 0.7%
  Sterol composition: Lanosterol: 3.0 ± 0.9%
[20]; compound at 0.01 μg/ml
  Sterol composition: Eburicol: 18.3 ± 1.1%
  Sterol composition: Ergost-5,7-dienol: 0%
  Sterol composition: Ergosterol: 74.7 ± 0.8%
  Sterol composition: Lanosterol: 7.0 ± 0.3%
[20]; compound at 0.1 μg/ml
  Sterol composition: Eburicol: 23.4 ± 0.8%
  Sterol composition: Ergost-5,7-dienol: 0%
  Sterol composition: Ergosterol: 67.8 ± 0.3%
  Sterol composition: Lanosterol: 8.8 ± 0.5%
[20]; compound at 1 μg/ml
  Sterol composition: Eburicol: 23.8 ± 1.3%
  Sterol composition: Ergost-5,7-dienol: 0%
  Sterol composition: Ergosterol: 67.4 ± 1.5%
  Sterol composition: Lanosterol: 8.8 ± 0.4%
[21]
  MIC: > 8 µg/mL

## C[C@@H](c1ncncc1F)[C@](O)(Cn1cncn1)c1ccc(F)cc1F [Voriconazole, voriconazole]
[1]
  MIC: 0.25 µg/mL (≈ 0.716 µM)
[3]; Aspergillus fumigatus
  MFC: > 32 µg/mL
[3]; [26]
  inhibition at 32 µg/mL: 69.2%
[5]
  MIC: > 8 µg/mL
[6]
  MIC: > 8 µg/mL
[7]
  MIC: 1 µg/mL (≈ 2.86 µM)
[23]; ATCC36583
  MIC: 8.13 µg/mL (≈ 23.3 µM)
[10]; ATCC204304
  MIC: 2 µg/mL (≈ 5.73 µM)
[11]
  MIC: 0.5 µg/mL (≈ 1.43 µM)
[24]
  MIC: 10 µg/mL (≈ 28.6 µM)
[12]
  MIC: > 8 µg/mL
[25]
  range of MFCs for inhibition of 90% of isolates tested (MFC90): 0.5 to 4 µg/mL
[16]; ATCC24067
  MIC: 0.016 µg/mL (≈ 0.0458 µM)
[21]
  MIC: > 8 µg/mL
